# Assay results: patent publication US11560417B2, “Isolated polypeptides of CD44 and uses thereof” (Yissum Research Development Company of the Hebrew …, priority 2014, dated 2023)
# Ends that are not written are not given here. Peptide text beside a SMILES is read from it.
# Legend:
# [1] = tested on: CIA mice on DBA/1 background; test: Paw swelling in collagen-induced arthritis (CIA) mice on DBA/1 background; type: in vivo, mouse; details: for joint inflammation (paw swelling) vs PBS / hind paws that remained healthy (paw swelling less than 2 mm): 200 μg per injection i.p.; for joint inflammation (paw swelling) vs PBS: daily for 9-10 days from onset of disease; for hind paws that remained healthy (paw swelling less than 2 mm): daily for 9 days, CIA DBA/1 mice; for paw swelling response vs PBS: 4 times within 6 days from onset of disease
# Protocol: (§1) Mice—Collagen-induced arthritis (CIA) was generated in DBA/1 or C57BL mice by injection of type II collagen as described in Nedvetzki et al., PNAS 101, 18081-18086, 2004.
# Treatment protocol—PBS, or the 9-mer RA peptide (SEQ ID NO: 3) at a dose of 25 μg, 100 μg or 150 μg per injection was administered i.p to CIA mice for 4 times within 6 days (see Table 3 below). PBS (n=7), or 5-mer RA peptide (SEQ ID NO: 1, n=7) at a dose of 70 μg per injection were administered i.p to CIA mice on C57BL/6 background for 10 consecutive days. In all groups first injection was given at the onset of disease as determined by paw swelling.
# (§2) Evaluation of joint inflammation—Inflammation was evaluated by the paw swelling response. Paw swelling was measured by micro caliber. Paw swelling at range of 2.1-2.3 mm was considered “onset of disease” and the starting point for injection of the peptides. […] All measurements were performed under blind manner (For additional details see Nedvetzki, et al., (2004) PNAS 101, 18081-18086).
# (§3) Treatment protocol—PBS, or the tested peptides [Ac-TRMTADVDR-NH2 (SEQ ID NO: 6), Ac-MTADVDR-NH2 (SEQ ID NO: 5), Ac-MTADV-NH2 (SEQ ID NO: 4) and scrambled Ac-TMDVADR-NH2 (SEQ ID NO: 7)] at doses of 70 or 200 μg per injection were administered i.p to […] for 9-10 consecutive days (see Tables 4-7 below). As a non-specific control, several mice were administered I.P. with Dexamethsone (Dex) at a dose of 50 μg, following the same protocol. In all groups first injection was given at the onset of disease as determined by paw swelling.
# Evaluation of joint inflammation—As described in Example 2 above. Paw swelling of less than 2 mm was considered healthy.
# [2] = tested on: CIA mice on C57BL/6 background; test: Paw/footpad swelling in CIA mice on C57BL/6 background; type: in vivo, mouse; details: 10 consecutive days; for joint inflammation (paw swelling) vs PBS: 70 μg per injection i.p.
# Protocol: as §1, §2, §3
# Treatment protocol—PBS, or the tested peptide [Ac-MTADV-NH2 (SEQ ID NO: 4)] at doses of 10, 25, 70, 200 or 600 μg per injection were administered i.p to CIA mice for 10 consecutive days (see Tables 8-9 below). In all groups first injection was given at the onset of disease as determined by paw swelling.
# To evaluate the optimal anti-inflammatory therapeutic dose of the 5-mer RA peptide, several different doses of the protected peptide (SEQ ID NO: 4) were administered to CIA mice on C57BL/6 background and joint inflammation was determined by footpad swelling measurements (electronic automatic measurements of the volume of the footpad, based on Archimedes observation).
# [3] = tested on: fibroblasts from the inflammatory joint of an RA patient; type: cell-based, human
# Protocol: Cells—Fibroblasts from the inflammatory joint of an RA patient were cultured and maintained as shown in Bendersky et al, J Immunol.; 188:4349-59, 2012. A quantity of 20,000 cells was added to each one of the 96 well plates with the indicated concentrations of peptide, serum amyloid A or α-lactalbumin.
# MTT assay—MTT assay was effected as shown in Madhyastha et al. (2015) J Clin Diagn Res.; 9 :ZCO5-8.
# An in-vitro model was developed as a tool to evaluate the biological activity of the generated RA peptides. To this end, fibroblasts from the inflammatory joint of an RA patient were incubated in-vitro and the effect of the peptides on cell survival was evaluated by a MTT assay.
# [4] = tested on: CIA mice on C57BL/6 background; test: ELISA for neutralizing anti-peptide antibodies in serum of treated CIA mice; type: in vivo, mouse; details: 70 μg per injection i.p., 10 consecutive days; ELISA plates coated with peptide
# Protocol: Treatment protocol—PBS, or 5-mer RA peptide (SEQ ID NO: 1) at a dose of 70 μg per injection were administered i.p to CIA mice on C57BL/6 background for 10 consecutive days. In all groups first injection was given at the onset of disease as determined by paw swelling.
# ELISA—96 wells ELISA plates were coated with 5-mer RA peptide (SEQ ID NO: 1), collagen or immunoglobulin (positive control). Serum from CIA mice treated with PBS or the 5-mer RA peptide was added to the coated plates and the presence of neutralizing antibodies against collagen or the RA peptide was detected with anti-immunoglobulin+detection system. The plate wells were coated with 1 mg/ml peptide or protein. Mouse serum was added to the plate wells for 15 hours in cold temperature. The detection system included HRP-anti-mouse IgG and TMB (Bako) substrate. Plates were analysed using an ELISA reader at a wave length of 450 nm.
# C57BL/6 mice = test: Delayed type hypersensitivity (DTH) response to oxazolone; type: in vivo, mouse; details: oxazolone sensitization day 0, elicitation day 6, reading day 7; peptide 200 μg daily
# Protocol: DTH model—C57BL/6 mice were painted at their abdomen with oxazolone solution (sensitization). On day 6, the right ear of each mouse was painted with the same hapten, oxazolone (elicitation), to generate delayed type hypersensitivity (DTH) response. The differences in thickness between the right and the left ears, indicating DTH development, were determined by microcaliper 24 hours later. DTH induction indicates a normal immune response. For additional details see Weiss et al., (2000) Proc. Natl. Acad. Sci. USA. 97, 285-290.
# Treatment protocol—PBS and 5-mer peptide (SEQ ID NO: 1) at a dose of 200 μg was administered one day before the sensitization and then every day during the sensitization period (7 days).
molecule,measurement,setting,value
Ac-MTADVDR-NH2 [7-mer protected RA peptide],joint inflammation (paw swelling) vs PBS,[1],reduces joint inflammation
same,hind paws that remained healthy (paw swelling less than 2 mm),[1],more than 60%
Ac-TMDVADR-NH2 [reference compound],joint inflammation (paw swelling) vs PBS,[1],no effect on footpad swelling
same,hind paws that remained healthy (paw swelling less than 2 mm),[1],33%
Ac-TRMTADVDR-NH2 [9-mer protected RA peptide],joint inflammation (paw swelling) vs PBS,[1],reduce joint inflammation
Ac-MTADV-NH2 [5-mer protected RA peptide],joint inflammation (paw swelling) vs PBS,[1],reduces joint inflammation
same,joint inflammation (footpad swelling) vs PBS,[2]; 10 μg per injection i.p.,did not induce a significant anti-inflammatory effect
same,joint inflammation (footpad swelling) vs PBS,[2]; 25 μg per injection i.p.,did not induce a significant anti-inflammatory effect
same,joint inflammation (paw swelling) vs PBS,[2],reduced the joint inflammation
same,joint inflammation (paw swelling) vs PBS,[2]; listed as 5-mer protected peptide,significantly inhibit joint inflammation
same,joint inflammation (footpad swelling) vs PBS,[2]; 200 μg per injection i.p.,reduced the joint inflammation
same,joint inflammation (footpad swelling) vs PBS,[2]; 600 μg per injection i.p.,reduced the joint inflammation
same,optimal and lowest dose for CIA inhibition,[2]; doses 10-600 μg i.p.,70 μg per injection
same,suppressive effect on cell survival compared to the 5-mer RA peptide (SEQ ID NO: 1),[3]; MTT assay,improved the suppressive effect
TRMTADVDR (not fully specified (C-terminus)) [9-mer RA peptide],paw swelling response vs PBS,[1]; 25 μg per injection i.p.,did not show significant difference in paw swelling response
same,paw swelling response vs PBS,[1]; 100 μg per injection i.p.,did not show significant difference in paw swelling response
same,paw swelling response vs PBS,[1]; 150 μg per injection i.p.,significant reduction in paw swelling
"CSCC[C@H](N)C(=O)N[C@H](C(=O)N[C@@H](C)C(=O)N[C@@H](CC(=O)O)C(=O)N[C@H](C(=O)O)C(C)C)[C@@H](C)O [5-mer RA peptide, MTADV] (H-MTADV-OH)",neutralizing antibodies to the peptide in serum,[4],no neutralizing antibodies
same,DTH response (difference in thickness between right and left ears) vs PBS,C57BL/6 mice,did not affect the DTH response
same,in-vitro maximal suppressive effect on cell survival,[3],60%
Serum Amyloid A (SAA): Serum Amyloid A protein added to the fibroblast culture in combination with the 5-mer peptide (protein) RSFFSFLGEAFDGARDMWRAYSDMREANYIGSDKYFHARGNYDAAKRGPGGAWAAEVITDARENIQRFFGHGAEDSLADQAANEWGRSGKDPNHFRPAGLPEKY,effect on the 5-mer peptide's inhibition of cell survival,[3]; 50 μg/ml added in combination with the 5-mer peptide,prevents this inhibition
same,effect on the 5-mer peptide's reduction of fibroblast survival,"[3]; escalating concentrations, 5-mer peptide constant at 25 μg/ml",gradually prevented this reduction
